In patent US6646137B1, “Non-peptide GnRH agents” (priority 1998, dated 2003):
Read-outs that look alike come from different tables or passages of the source.

Biological target: T1, human GnRH receptor (Homo sapiens, UniProt P30968)
T1 construct: The cDNA for the human GnRH receptor is cloned into the plasmid expression vector, pcDNA 3; expressed in transfected cells; host or cells: HEK 293 cells, stably transfected (pcDNA 3); membrane preparation
T1 sequence (P30968 1-328): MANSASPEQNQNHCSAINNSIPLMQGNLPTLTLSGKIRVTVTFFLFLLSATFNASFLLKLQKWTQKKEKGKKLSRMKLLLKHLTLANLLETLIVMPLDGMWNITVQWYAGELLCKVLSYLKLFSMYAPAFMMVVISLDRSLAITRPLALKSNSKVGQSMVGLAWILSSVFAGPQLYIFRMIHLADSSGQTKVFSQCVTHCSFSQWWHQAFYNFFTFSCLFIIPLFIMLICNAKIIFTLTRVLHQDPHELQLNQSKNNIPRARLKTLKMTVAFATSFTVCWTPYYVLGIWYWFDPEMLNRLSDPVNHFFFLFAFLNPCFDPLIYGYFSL
Assay: GnRH receptor competitive radioligand binding assay (125I-GnRH-A, HEK 293 cell membranes)
Details: compound at 10 μM
From the text: The cDNA for the human GnRH receptor is cloned into the plasmid expression vector, pcDNA 3 (In Vitrogen), and stably transfected in HEK 293 cells (a cell line developed by Dr. Stuart Sealfon, Mount Sinai Medical School, New York, N.Y.).
The human GnRH receptor (hGnRH) is cloned into pcDNA 3 (In Vitrogen), which provides high-level expression and a neomycin resistance marker. Lipofectamine (GIBCO BRL) is used to transfect HEK 293 cells with plasmid DNA. This method involves mixing the plasmid and reagent in serum-free medium, allowing DNA-liposome complexes to form, and overlaying cells with this solution. The HEK 293 cells are plated (seeded) on a 10-cm tissue culture dish at a density of 3×10^6 cells/dish the day before transfection. For each plate, 8 μg DNA plus 0.8 mL serum-free medium is mixed with 48 μL lipofectamine plus 0.8 mL serum-free medium, followed by incubation for 30 minutes at room temperature to allow DNA-liposome complexes to form. Serum-free medium is added to give a final volume of 6 mL/plate. The cells are rinsed twice with serum-free medium and overlayed with the DNA-liposome mixture. Five hours after transfection, an equal volume (6 mL) of medium containing 20% FBS (fetal bovine serum) is added. The cells are fed with fresh complete medium 18-24 hours after transfection. The cells are split 72 hours following transfection, at densities of 1:10 and 1:20. Stable tranformants are selected for by growth of the cells in antibiotic containing medium (G418, Sigma Chemical Company (also known as Geneticin)). Colonies are isolated and tested for receptor expression by radioligand binding and by measuring phosphoinositol turnover.
HEK 293 cells stably transfected with human GnRH receptors as described above are grown in MEM (minimal essential medium, available from Sigma Chemical Company) supplemented with 0.1% G418 (Sigma Chemical Company). Cells are homogenized in buffer A containing 50 mM Tris (pH 74.), 0.32M sucrose, 2 mM ethyleneglycol-bis(β-aminoethyl)-N,N,N′,N′-tetraacetic acid (EGTA), 1 mM phenylmethylsulfonyl fluoride (PMSF), 5 μg/mL aprotinen, 5 μg/mL Pepstatin A, and 1 μg/mL leupeptin. The homogenized cells are centrifuged at 4° C. at 20,000×g for 25 minutes, resuspended in buffer A, and recentrifuged at 4° C. at 20,000×g for an additional 25 minutes. Total membrane protein is determined with a BCA kit (Pierce, Rockford, Ill.). Membranes are stored at −70° C. at a final membrane protein concentration of 5 mg/mL.
The radioiodinated agonist analog of GnRH, [des-Gly^10, D-Ala^8]GnRH ethylamide (GnRH-A), is used as the labeled ligand. One μg of GnRH-A diluted in 0.1M acetic acid is added to an lodogen®-coated borosilicate glass tube pierce) containing 35 μL of 0.05M phosphate buffer (pH 7.4-7.6) and 1 mCi of Na[^125I]. The reaction mixture is vortexed and incubated for 1 minute at room temperature. After one minute, the mixture is vortexed again and allowed to incubate for an additional minute. Two mL of 0.5M acetic acid/1% BSA is added to the reaction tube, and the mixture is added to a C18 Sep-Pak cartridge. The cartridge is washed with subsequent washes of 5 mL H2O and 5 mL 0.5M acetic acid, and then eluted with 5×1 mL of 60% CH3CN/40% 0.5M acetic acid. The eluant is diluted with 3×volume of HPLC buffer A (0.1% TFA in H2O) and loaded onto a C18 column. The iodinated product is eluted over 20-25 minutes with a gradient of 25-100% CH3CN containing 0.1% TFA. The radioactive fractions (750 μL/fraction) are collected into clean polypropylene tubes containing 10 μL of 10% BSA. Fractions are assessed for biological activity by radioligand binding. Active fractions are utilized to screen the compounds for competitive binding assays.
HEK 293 cell membranes stably expressing hGnRHR (human GnRH receptors) are diluted to 0.5-1.0 mg/mL with assay buffer containing 50 mM HEPES (pH 7.4), 1 mM ethylenediarninetetraacetic acid (EDTA), 2.5 mM MgCl2, and 0.1% BSA. […]

[1] = average of 1st and 2nd test, read-out: Average % Remaining (percent of specific binding remaining)
[2] = crude compounds, 125I-GnRH-A, lower value = higher inhibition, read-out: % Remaining 1st Test (percent of specific binding remaining)
[3] = crude compounds, 125I-GnRH-A, lower value = higher inhibition, read-out: % Remaining 2nd Test (percent of specific binding remaining)

| Structure (SMILES) | remaining activity at 10 µM [1] [%] | remaining activity at 10 µM [2] [%] | remaining activity at 10 µM [3] [%] |
| --- | --- | --- | --- |
| CC(C)(C)c1ccc(CN(Cc2ccc(CNC(=N)N)cc2)C(=O)c2cccc3ccccc23)cc1 [Compound 1] | 57 | 57 | 57 |
| CC(C)(C)c1ccc(CN(Cc2ccc(CNC(=N)N)cc2)C(=O)c2ccccc2)cc1 [Compound 2] | 57 | 59 | 54 |
| CN(C)CCCOc1ccc(CN(Cc2ccc(CNC(=N)N)cc2)C(=O)c2ccc3ccccc3c2)cc1 [Compound 3] | 55 | 58 | 57 |
| N=C(N)NCc1ccc(CN(CC23CC=CCC2C2CC=CCC2O3)C(=O)c2cccc3ccccc23)cc1 (stereo not drawn) [Compound 4] | 40 | 40 | 40 |
| N=C(N)NCc1ccc(CN(CC23CC=CCC2C2CC=CCC2O3)C(=O)c2ccc3ccccc3c2)cc1 (stereo not drawn) [Compound 5] | 37 | 31 | 33 |
| N=C(N)NCc1ccc(CN(CC23CC=CCC2C2CC=CCC2O3)C(=O)c2cccs2)cc1 (stereo not drawn) [Compound 6] | 46 | 47 | 45 |
| N=C(N)NCc1ccc(CN(CC23CC=CCC2C2CC=CCC2O3)C(=O)c2ccco2)cc1 (stereo not drawn) [Compound 7] | 53 | 51 | 55 |
| N=C(N)NCc1ccc(CN(CC23CC=CCC2C2CC=CCC2O3)C(=O)c2ccccc2)cc1 (stereo not drawn) [Compound 8] | 45 | 42 | 48 |

The next lines start with the values.

| remaining activity at 10 µM [1] [%] | remaining activity at 10 µM [2] [%] | remaining activity at 10 µM [3] [%] | Structure (SMILES) |
| --- | --- | --- | --- |
| 52 | 51 | 53 | N=C(N)NCc1ccc(CN(CC23CC=CCC2C2CC=CCC2O3)C(=O)c2ccc(Cl)nc2)cc1 (stereo not drawn) [Compound 9] |
| 53 | 51 | 54 | Cc1cc2c(cc1CN(Cc1ccc(CNC(=N)N)cc1)C(=O)C1CCCCC1)C(C)(C)CCC2(C)C [Compound 10] |
| 53 | 55 | 50 | Cc1cc2c(cc1CN(Cc1ccc(CNC(=N)N)cc1)C(=O)c1cccc3ccccc13)C(C)(C)CCC2(C)C [Compound 11] |
| 13 | 14 | 11 | Cc1cc2c(cc1CN(Cc1ccc(CNC(=N)N)cc1)C(=O)c1ccco1)C(C)(C)CCC2(C)C [Compound 13] |
| 55 | 56 | 54 | Cc1cc2c(cc1CN(Cc1ccc(CNC(=N)N)cc1)C(=O)c1ccccc1)C(C)(C)CCC2(C)C [Compound 14] |
| 59 | 58 | 60 | CC(=O)N(Cc1ccc(CNC(=N)N)cc1)Cc1cc2c(cc1C)C(C)(C)CCC2(C)C [Compound 15] |
| 49 | 50 | 47 | Cc1cc2c(cc1CN(Cc1ccc(CNC(=N)N)cc1)C(=O)c1ccc(Cl)nc1)C(C)(C)CCC2(C)C [Compound 16] |
| 45 | 47 | 42 | N=C(N)NCc1ccc(CN(Cc2ccc(OCc3ccccc3)c(OCc3ccccc3)c2)C(=O)c2ccccc2)cc1 [Compound 19] |
| 57 | 60 | 54 | N=C(N)NCc1ccc(CN(Cc2ccc(OCc3ccccc3)c(OCc3ccccc3)c2)C(=O)c2ccc(Cl)nc2)cc1 [Compound 20] |
| 49 | 46 | 51 | CC(=O)N(Cc1ccc(CNC(=N)N)cc1)Cc1ccc(OCc2ccccc2)c(OCc2ccccc2)c1 [Compound 21] |
| 55 | 52 | 57 | CCOc1cc(OCC)c(OCC)cc1CN(Cc1ccc(CNC(=N)N)cc1)C(=O)c1ccco1 [Compound 22] |
